Test results: the supplement of paper PMC10307832

Experiments:
Assay in all cases: relative viability (nuclei count vs DMSO), 5 days (fraction); higher = more cells survive
CAL-12T = test system: CAL-12T
Method in brief: (§1)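 Medians of duplicate plates are given as relative viability. That measure is the nuclei count in treated wells divided by the count in vehicle wells. Counts were taken on 4× images of lung cancer cell lines in 1536-well plates, 5 days after pin-tool dosing the day after seeding with one drug alone or a fixed anchor-drug dose plus five library-drug doses (not always all listed) in √10 steps.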

NCI-H460 = test system: NCI-H460
Method in brief: as §1

NCI-H1563 = test system: NCI-H1563
Method in brief: as §1

NCI-H1651 = test system: NCI-H1651
Method in brief: as §1

HCC-44 = test system: HCC-44
Method in brief: as §1

LK-2 = test system: LK-2
Method in brief: as §1

NCI-H520 = test system: NCI-H520
Method in brief: as §1

HCC-15 = test system: HCC-15
Method in brief: as §1

EKVX = test system: EKVX
Method in brief: as §1

NCI-H358 = test system: NCI-H358
Method in brief: as §1

NCI-H838 = test system: NCI-H838
Method in brief: as §1

COR-L 105 = test system: COR-L 105
Method in brief: as §1

NCI-H322M = test system: NCI-H322M
Method in brief: as §1

LU99A = test system: LU99A
Method in brief: as §1

201T = test system: 201T
Method in brief: as §1

NCI-H2023 = test system: NCI-H2023
Method in brief: as §1

NCI-H727 = test system: NCI-H727
Method in brief: as §1

PC-3 [JPC-3] = test system: PC-3 [JPC-3]
Method in brief: as §1

EMC-BAC-2 = test system: EMC-BAC-2
Method in brief: as §1

ABC-1 = test system: ABC-1
Method in brief: as §1

BEN = test system: BEN
Method in brief: as §1

CN1CCN(CCOc2cc(OC3CCOCC3)c3c(Nc4c(Cl)ccc5c4OCO5)ncnc3c2)CC1 [Saracatinib] + Cc1nc(NC(=O)N2CCC[C@H]2C(N)=O)sc1-c1ccnc(C(C)(C)C(F)(F)F)c1 [Alpelisib] (partner 2 µM)
relative viability (CAL-12T; first compound 0.02 µM): 1.28 | relative viability (CAL-12T; first compound 0.2 µM): 1.06 | relative viability (CAL-12T; first compound 0.6325 µM): 1.33 | relative viability (CAL-12T; first compound 2 µM): 0.927 | relative viability (NCI-H460; first compound 0.02 µM): 0.574 | relative viability (NCI-H460; first compound 0.2 µM): 0.347 | relative viability (NCI-H460; first compound 0.6325 µM): 0.289 | relative viability (NCI-H460; first compound 2 µM): 0.175 | relative viability (NCI-H1563; first compound 0.02 µM): 0.992 | relative viability (NCI-H1563; first compound 0.2 µM): 0.882 | relative viability (NCI-H1563; first compound 0.6325 µM): 0.725 | relative viability (NCI-H1563; first compound 2 µM): 0.693 | relative viability (NCI-H1651; first compound 0.02 µM): 1.02 | relative viability (NCI-H1651; first compound 0.2 µM): 0.729 | relative viability (NCI-H1651; first compound 0.6325 µM): 0.913 | relative viability (NCI-H1651; first compound 2 µM): 0.804 | relative viability (HCC-44; first compound 0.02 µM): 0.859 | relative viability (HCC-44; first compound 0.2 µM): 0.658 | relative viability (HCC-44; first compound 0.6325 µM): 0.874 | relative viability (HCC-44; first compound 2 µM): 0.862 | relative viability (LK-2; first compound 0.02 µM): 0.956 | relative viability (LK-2; first compound 0.2 µM): 0.851 | relative viability (LK-2; first compound 0.6325 µM): 1.02 | relative viability (LK-2; first compound 2 µM): 0.531 | relative viability (NCI-H520; first compound 0.02 µM): 0.901 | relative viability (NCI-H520; first compound 0.2 µM): 0.779 | relative viability (NCI-H520; first compound 0.6325 µM): 0.545 | relative viability (NCI-H520; first compound 2 µM): 0.493 | relative viability (HCC-15; first compound 0.02 µM): 0.889 | relative viability (HCC-15; first compound 0.2 µM): 0.641 | relative viability (HCC-15; first compound 0.6325 µM): 0.808 | relative viability (HCC-15; first compound 2 µM): 0.759 | relative viability (EKVX; first compound 0.02 µM): 0.897 | relative viability (EKVX; first compound 0.2 µM): 0.551 | relative viability (EKVX; first compound 0.6325 µM): 0.671 | relative viability (EKVX; first compound 2 µM): 0.325 | relative viability (NCI-H358; first compound 0.02 µM): 0.839 | relative viability (NCI-H358; first compound 0.2 µM): 0.881 | relative viability (NCI-H358; first compound 0.6325 µM): 0.514 | relative viability (NCI-H358; first compound 2 µM): 0.448 | relative viability (NCI-H838; first compound 0.02 µM): 0.993 | relative viability (NCI-H838; first compound 0.2 µM): 0.929 | relative viability (NCI-H838; first compound 0.6325 µM): 0.771 | relative viability (NCI-H838; first compound 2 µM): 0.803 | relative viability (COR-L 105; first compound 0.02 µM): 0.91 | relative viability (COR-L 105; first compound 0.2 µM): 0.96 | relative viability (COR-L 105; first compound 0.6325 µM): 0.7 | relative viability (COR-L 105; first compound 2 µM): 0.416 | relative viability (NCI-H322M; first compound 0.02 µM): 0.761 | relative viability (NCI-H322M; first compound 0.2 µM): 0.876 | relative viability (NCI-H322M; first compound 0.6325 µM): 0.822 | relative viability (NCI-H322M; first compound 2 µM): 0.639 | relative viability (LU99A; first compound 0.02 µM): 0.568 | relative viability (LU99A; first compound 0.2 µM): 0.371 | relative viability (LU99A; first compound 0.6325 µM): 0.513 | relative viability (LU99A; first compound 2 µM): 0.417 | relative viability (201T; first compound 0.02 µM): 1.09 | relative viability (201T; first compound 0.2 µM): 0.865 | relative viability (201T; first compound 0.6325 µM): 0.856 | relative viability (201T; first compound 2 µM): 0.772 | relative viability (NCI-H2023; first compound 0.02 µM): 0.62 | relative viability (NCI-H2023; first compound 0.2 µM): 0.409 | relative viability (NCI-H2023; first compound 0.6325 µM): 0.485 | relative viability (NCI-H2023; first compound 2 µM): 0.364 | relative viability (NCI-H727; first compound 0.02 µM): 0.558 | relative viability (NCI-H727; first compound 0.2 µM): 0.461 | relative viability (NCI-H727; first compound 0.6325 µM): 0.334 | relative viability (NCI-H727; first compound 2 µM): 0.308 | relative viability (PC-3 [JPC-3]; first compound 0.02 µM): 0.998 | relative viability (PC-3 [JPC-3]; first compound 0.2 µM): 0.956 | relative viability (PC-3 [JPC-3]; first compound 0.6325 µM): 0.876 | relative viability (PC-3 [JPC-3]; first compound 2 µM): 0.53 | relative viability (EMC-BAC-2; first compound 0.02 µM): 0.778 | relative viability (EMC-BAC-2; first compound 0.2 µM): 0.657 | relative viability (EMC-BAC-2; first compound 0.6325 µM): 0.697 | relative viability (EMC-BAC-2; first compound 2 µM): 0.578 | relative viability (ABC-1; first compound 0.02 µM): 0.854 | relative viability (ABC-1; first compound 0.2 µM): 1.06 | relative viability (ABC-1; first compound 0.6325 µM): 0.981 | relative viability (ABC-1; first compound 2 µM): 0.857 | relative viability (BEN; first compound 0.02 µM): 1.08 | relative viability (BEN; first compound 0.2 µM): 1.03 | relative viability (BEN; first compound 0.6325 µM): 1.07 | relative viability (BEN; first compound 2 µM): 0.85
